Read-outs that look alike come from different tables or passages of the source.
Tests used:
Assay type in all cases: cell-based
[1] = tested on: MDA-MB-231 (breast cancer); assay: Antiproliferative activity (CCK-8 cell viability), MDA-MB-231; settings: Homo sapiens, 72 h; for inhibition at 3.3 µM: Compound concentration: 3.3 μM; for inhibition at 10 µM: Compound concentration: 10 μM; for inhibition at 30 µM: Compound concentration: 30 μM
Outline: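 MDA-MB-231 breast cancer cells, grown in DMEM with 10% FBS, were plated in 96-well plates at 2,000-5,000 cells/well. Once attached, they were exposed to compound and incubated at 37° C. for 72 h. Viability was then measured with CCK-8 (10 μL per well, 4 h at 37° C.) by absorbance at 450 nm, relative to DMSO vehicle wells.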

[2] = tested on: HepG2 (liver cancer); assay: Antiproliferative activity (CCK-8 cell viability), HepG2; settings: Homo sapiens, 72 h, read-out: Antiproliferative activity in cancerous cells, HepG2 (inhibition of cell growth); for inhibition at 3.3 µM: Compound concentration: 3.3 μM; for inhibition at 10 µM: Compound concentration: 10 μM; for inhibition at 30 µM: Compound concentration: 30 μM
Outline: (§1)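 Cells grown in DMEM (HepG2, SW480), MEM (HeLa) or F-12K (A549), each with 10% FBS, then exposed to compound at 3.3, 10 or 30 μM for 72 h at 37 °C. CCK-8 absorbance at 450 nm; viability expressed as percent of DMSO-treated cells, graded as growth inhibition bands.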

[3] = tested on: SW480 (colon cancer); assay: Antiproliferative activity (CCK-8 cell viability), SW480; settings: Homo sapiens, 72 h, read-out: Antiproliferative activity in cancerous cells, SW480 (inhibition of cell growth); for inhibition at 3.3 µM: Compound concentration: 3.3 μM; for inhibition at 10 µM: Compound concentration: 10 μM; for inhibition at 30 µM: Compound concentration: 30 μM
Outline: as §1

[4] = tested on: B16F10 (malignant melanoma); assay: Antiproliferative activity (CCK-8 cell viability), B16F10; settings: Mus musculus, 72 h, read-out: Antiproliferative activity in cancerous cells, B16F10 (inhibition of cell growth); for inhibition at 3.3 µM: B16-F10, Compound concentration: 3.3 μM; for inhibition at 10 µM: B16-F10, Compound concentration: 10 μM; for inhibition at 30 µM: B16-F10, Compound concentration: 30 μM
Outline: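 B16F10 melanoma cells grown in DMEM with 10% FBS were plated in 96-well plates at 2,000-5,000 cells/well. After attachment they were exposed to compound in medium for 72 h at 37° C. CCK-8 solution (10 μL) was then added, and after 4 h at 37° C absorbance was read at 450 nm.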

[5] = tested on: A431 (epidermoid carcinoma); assay: Antiproliferative activity (CCK-8 cell viability), A431; settings: Homo sapiens, 72 h, read-out: Antiproliferative activity in cancerous cells, A431 (inhibition of cell growth); for inhibition at 3.3 µM: A-431, Compound concentration: 3.3 μM; for inhibition at 10 µM: A-431, Compound concentration: 10 μM; for inhibition at 30 µM: A-431, Compound concentration: 30 μM
Outline: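 A431 epidermoid carcinoma cells grown in DMEM with 10% FBS were plated at 2,000-5,000 cells/well in 96-well plates. After attachment they were exposed to compound at 3.3 μM, 10 μM, or 30 μM for 72 h at 37° C. Viability was then assessed by CCK-8 against DMSO vehicle-treated wells.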

[6] = tested on: A549 (lung adenocarcinoma); assay: Antiproliferative activity (CCK-8 cell viability), A549; settings: Homo sapiens, 72 h, read-out: Antiproliferative activity in cancerous cells, A549 (inhibition of cell growth); for inhibition at 3.3 µM: Compound concentration: 3.3 μM; for inhibition at 10 µM: Compound concentration: 10 μM; for inhibition at 30 µM: Compound concentration: 30 μM
Outline: as §1

[7] = tested on: HeLa (cervical cancer); assay: Antiproliferative activity (CCK-8 cell viability), HeLa; settings: Homo sapiens, 72 h, read-out: Antiproliferative activity in cancerous cells, HELA (inhibition of cell growth); for inhibition at 3.3 µM: Compound concentration: 3.3 μM; for inhibition at 10 µM: Compound concentration: 10 μM; for inhibition at 30 µM: Compound concentration: 30 μM
Outline: as §1

[8] = read-out: Antiproliferative activity in cancerous cells, MDA-MB-231 (inhibition of cell growth)
[9] = read-out: Antiproliferative activity in cancerous cells, MDA-MB-231

CC1=C(CC(=O)O)c2cc(F)ccc2/C1=C\c1ccc(Cc2cc3ccccc3o2)cc1 [C311, (Z)-2-(1-(4-(Benzofuran-2-ylmethyl)benzylidene)-5-fluoro-2-methyl-1H-inden-3-yl)acetic acid]
30 to 50%: inhibition at 3.3 µM [5] | inhibition at 10 µM [5] | inhibition at 30 µM [5] | inhibition at 30 µM [7]
< 30%: inhibition at 3.3 µM [1, 8] | inhibition at 3.3 µM [3] | inhibition at 10 µM [3] | inhibition at 30 µM [3] | inhibition at 3.3 µM [6] | inhibition at 10 µM [6] | inhibition at 30 µM [6] | inhibition at 3.3 µM [7] | inhibition at 10 µM [7]
≥ 50%: inhibition at 10 µM [1, 8] | inhibition at 30 µM [1, 8] | inhibition at 3.3 µM [2] | inhibition at 10 µM [2] | inhibition at 30 µM [2] | inhibition at 3.3 µM [4] | inhibition at 10 µM [4] | inhibition at 30 µM [4]

CC1=C(CC(=O)O)c2cc(Br)ccc2/C1=C\c1ccc(COCc2ccc(Cl)cc2)cc1 [B120, (Z)-2-(5-Bromo-1-(4-(((4-chlorobenzyl)oxy)methyl)benzylidene)-2-methyl-1H-inden-3-yl)acetic acid]
30 to 50%: inhibition at 3.3 µM [2] | inhibition at 3.3 µM [6]
< 30%: inhibition at 3.3 µM [1, 8] | inhibition at 10 µM [1, 8] | inhibition at 3.3 µM [3] | inhibition at 3.3 µM [4] | inhibition at 10 µM [4]
≥ 50%: inhibition at 10 µM [2] | inhibition at 10 µM [3] | inhibition at 3.3 µM [5] | inhibition at 10 µM [5] | inhibition at 10 µM [6] | inhibition at 3.3 µM [7] | inhibition at 10 µM [7]

CCc1ccc2c(c1)C(CC(=O)O)=C(C)/C2=C/c1ccc(COc2ccc(Cl)cc2)cc1 [B56, (Z)-2-(1-(4-((4-Chlorophenoxy)methyl)benzylidene)-5-ethyl-2-methyl-1H-inden-3-yl)acetic acid]
< 30%: inhibition at 3.3 µM [1, 8]
30 to 50%: inhibition at 10 µM [1, 8] | inhibition at 3.3 µM [3] | inhibition at 3.3 µM [4] | inhibition at 3.3 µM [6]
≥ 50%: inhibition at 3.3 µM [2] | inhibition at 10 µM [2] | inhibition at 10 µM [3] | inhibition at 10 µM [4] | inhibition at 3.3 µM [5] | inhibition at 10 µM [5] | inhibition at 10 µM [6] | inhibition at 3.3 µM [7] | inhibition at 10 µM [7]

CC1=C(CC(=O)O)c2cc(F)ccc2/C1=C\c1ccc(C(=O)c2cc3ccccc3s2)cc1 [C303, (Z)-2-(1-(4-(Benzo[b]thiophene-2-carbonyl)benzylidene)-5-fluoro-2-methyl-1H-inden-3-yl)acetic acid]
< 30%: inhibition at 3.3 µM [5]
≥ 50%: inhibition at 3.3 µM [1, 8] | inhibition at 10 µM [1, 8] | inhibition at 30 µM [1, 8] | inhibition at 10 µM [2] | inhibition at 30 µM [2] | inhibition at 10 µM [3] | inhibition at 30 µM [3] | inhibition at 3.3 µM [4] | inhibition at 10 µM [4] | inhibition at 30 µM [4] | inhibition at 10 µM [5] | inhibition at 30 µM [5] | inhibition at 10 µM [6] | inhibition at 30 µM [6] | inhibition at 10 µM [7] | inhibition at 30 µM [7]
30 to 50%: inhibition at 3.3 µM [2] | inhibition at 3.3 µM [3] | inhibition at 3.3 µM [6] | inhibition at 3.3 µM [7]

CC1=C(CC(=O)O)c2cc(F)ccc2/C1=C\c1ccc(S(=O)(=O)c2ccc(F)cc2)cc1 [C40, (Z)-2-(5-Fluoro-1-(4-((4-fluorophenyl)sulfonyl)benzylidene)-2-methyl-1H-inden-3-yl)acetic acid]
≥ 50%: inhibition at 10 µM [2] | inhibition at 10 µM [3] | inhibition at 10 µM [4] | inhibition at 10 µM [7]
< 30%: inhibition at 3.3 µM [2] | inhibition at 3.3 µM [3] | inhibition at 3.3 µM [4] | inhibition at 3.3 µM [6] | inhibition at 3.3 µM [7]
30 to 50%: inhibition at 3.3 µM [1, 8] | inhibition at 10 µM [1, 8] | inhibition at 30 µM [1, 9] | inhibition at 3.3 µM [5] | inhibition at 10 µM [5] | inhibition at 10 µM [6]

CC1=C(CC(=O)O)c2c(Cl)cc(Cl)cc2/C1=C/c1ccc(Oc2ccc(F)cc2)cc1 [E33, (E)-2-(4,6-Dichloro-1-(4-(4-fluorophenoxy)benzylidene)-2-methyl-1H-inden-3-yl)acetic acid]
≥ 50%: inhibition at 10 µM [1, 8] | inhibition at 30 µM [1, 8] | inhibition at 10 µM [2] | inhibition at 30 µM [2] | inhibition at 30 µM [3] | inhibition at 3.3 µM [4] | inhibition at 10 µM [4] | inhibition at 30 µM [4] | inhibition at 3.3 µM [5] | inhibition at 10 µM [5] | inhibition at 30 µM [5] | inhibition at 10 µM [6] | inhibition at 30 µM [6] | inhibition at 10 µM [7] | inhibition at 30 µM [7]
30 to 50%: inhibition at 10 µM [3] | inhibition at 3.3 µM [7]
< 30%: inhibition at 3.3 µM [1, 8] | inhibition at 3.3 µM [2] | inhibition at 3.3 µM [3] | inhibition at 3.3 µM [6]

CC1=C(CC(=O)O)c2cc(C)ccc2/C1=C\c1ccc(CCc2ccccc2)cc1 [B147, (Z)-2-(2,5-Dimethyl-1-(4-phenethylbenzylidene)-1H-inden-3-yl)acetic acid]
≥ 50%: inhibition at 10 µM [2] | inhibition at 10 µM [3] | inhibition at 10 µM [4] | inhibition at 3.3 µM [5] | inhibition at 10 µM [5] | inhibition at 10 µM [6] | inhibition at 10 µM [7]
30 to 50%: inhibition at 30 µM [1, 9]
< 30%: inhibition at 3.3 µM [1, 8] | inhibition at 10 µM [1, 8] | inhibition at 3.3 µM [2] | inhibition at 3.3 µM [3] | inhibition at 3.3 µM [4] | inhibition at 3.3 µM [6] | inhibition at 3.3 µM [7]

CC1=C(CC(=O)O)c2cc(F)ccc2/C1=C\c1ccc(C(=O)c2ccc(F)cc2)cc1 [C305, (Z)-2-(5-Fluoro-1-(4-(4-fluorobenzoyl)benzylidene)-2-methyl-1H-inden-3-yl)acetic acid]
≥ 50%: inhibition at 3.3 µM [1, 8] | inhibition at 10 µM [1, 8] | inhibition at 30 µM [1, 8] | inhibition at 10 µM [2] | inhibition at 30 µM [2] | inhibition at 10 µM [3] | inhibition at 30 µM [3] | inhibition at 10 µM [4] | inhibition at 30 µM [4] | inhibition at 10 µM [5] | inhibition at 30 µM [5] | inhibition at 10 µM [6] | inhibition at 30 µM [6] | inhibition at 10 µM [7] | inhibition at 30 µM [7]
30 to 50%: inhibition at 3.3 µM [2] | inhibition at 3.3 µM [3] | inhibition at 3.3 µM [5] | inhibition at 3.3 µM [7]
< 30%: inhibition at 3.3 µM [4] | inhibition at 3.3 µM [6]

— patent US20260184663A1, “INDENE COMPOUNDS, PHARMACEUTICAL COMPOSITIONS THEREOF, AND THEIR THERAPEUTIC APPLICATIONS” (NucMito Pharmaceuticals co. Ltd., priority 2022, published 2026)
